Earlier results as cited in patent US5006550A, “Chroman esters of phenols and benzoic acids having retinoid-like activity” (Allergan, Inc., priority 1989, dated 1991).

System: ornithine decarboxylase (ODC)
Details: background statement on retinoic acid

Question: Which “inhibition of induction of ODC activity by TPA (in words)” value does the source give for `CC1=C(/C=C/C(C)=C/C=C/C(C)=C/C(=O)O)C(C)(C)CCC1` [Retinoic acid] here?
Answer: The value was “inhibits this induction of ODC activity by TPA”.
